From patent US20050009886A1, “1,4-Dihydropyridine derivative with a guaiacoxypropanolamine and/or phenoxypropanolamine moiety” (priority 1998, published 2005)

Tests used:
[1] = tested on: isolated atria; test: Direct effect (intrinsic sympathomimetic activity) on reserpine pretreated isolated atria; design: species or system Wistar rat; details: for direct effect on right atrium beating rate and left atrium isometric contractions: cumulative administration, reserpine pretreated
Description: Wistar rats of weight between 200˜300 gm were used. 18˜24 hours before the experiment, 5 mg/kg of reserpine was injected via abdominal cavity to remove all endogenous catecholamines. Prior experiment, Wistar rats were sacrificed, the heart was immediately removed and placed in Kreb's solution aerated with air mixture and maintained at room temperature. The right and left atria were carefully separated.

[2] = biological target: T1, β2-adrenoceptor (Cavia porcellus, UniProt Q8K4Z4); test: Direct effect (intrinsic sympathomimetic activity) on reserpine pretreated isolated tracheal; design: species or system guinea pig; details: cumulative 10^−10˜3×10^−6 M, reserpine pretreated tracheal
T1 construct: a portion of tracheal approximately 4 cm long was removed; from tissue; host or cells: isolated trachea of reserpine-pretreated guinea pigs
Description: 18˜24 hours before the experiment, 5 mg/kg of reserpine was injected via abdominal cavity to remove all endogenous catecholamines. Prior experiment, guinea pigs were sacrificed, the tracheal was immediately removed and placed in Kreb's solution aerated with air mixture and maintained at room temperature of 22˜25° C. […] Then the tissue was repeatedly washed with Kreb's solution.

[3] = biological target: T2, β-adrenoreceptor (β1) (Rattus norvegicus, UniProt P18090); test: Isolated right atrium, L-isoproterenol-induced heart rate increase (pA2); design: species or system Wistar rat; details: for β1/β2: from pA2 difference right atrium vs tracheal; for β1 Right Atrium (Slope): slope of Schild regression; for β1 Value of pA2 Right Atrium: vs L-isoproterenol, Schild plot
T2 construct: The right and left atria were then separated; from tissue; host or cells: isolated rat right atrium (spontaneously beating) and left atrium (electrically paced)
Description: The right and left atria were then separated. The spontaneously-beating right atria was clipped on both end by heart shaped clips, where one end was fixed at the bottom of 10 ml of tissue bath made of physiological saline solution, and temperature maintained at 37° C. The other end of the atria was connected to a force transducer, and isometric contractions and beating rate of the right atria were recorded by COULBOURN AT-High-Speed VideoFigure. After the samples were given 250 mg of contractions and reach equilibrium the following experiments were carried out: • (a) β-adrenoceptor blocking action
Cumulative administration interval was when the previous concentration reached its greatest effect, the next concentration would be immediately given.
The equation is as follows: pA2=−Log KB Log(DRADJ−1)=nlog[B]−LogKB [formula]
[B] Test compound concentration in moles • KB: equilibrium dissociation constant • n: value of slope DR: test EC50 divided by control EC50 • CF: EC50 of second or third control groups divided by EC50 of first control group (c) Effect of Compound on the Increase of Spontaneous Beating in Right Atrium Caused by CaCl2

[4] = Heart rate and blood pressure in living rat; type: in vivo, Wistar rats; details: 1 mg/kg via femoral vein, anaesthetized rat
Source text: Male Wistar rats, weighing 200˜300 g were abdominal anaesthetized with pentobarbital sodium. Tracheal was cannulated to maintain normal respiration. Polyethylene tube was inserted into the left femoral vein to facilitate drug administration. A 3-way stopcock was used, with one end connected to a syringe for drug injection, while the other end was connected to the syringe filled with physiological saline. The latter was used to prevent residual drugs in the polyethylene tube after injection, which would affect experimental accuracy.
The right femoral artery was also inserted with polyethylene, and a 3-way stopcock was used too, where one end was connected to heparin solution to prevent embolism. The other end was connected to a Disposable Diaphragm Dome, TA1019, and linked to a transducer. Through an amplifier, a recorder recorded the overall and average arterial pressure; heart rate to evaluate the effect of drug on blood pressure and heart rate.

[5] = tested on: Calcium; test: Calcium antagonism (pKCa^−1, Table 2)
[6] = biological target: T2, β-adrenoreceptor (β1); test: Isolated left atrium, L-isoproterenol-induced contractility increase (pA2); design: species or system Wistar rat; details: for β1 Left Atrium (Slope): slope of Schild regression; for β1 Value of pA2 Left Atrium: vs L-isoproterenol, electrically stimulated
Description: The inspontaneously-beating left atrial tissue was obtained from rat's isolated right atrial tissue experiments. […] The contraction rate was 1 Hz and the resting tension 0.5 gm. After 60 minutes of equilibration, the following experiments were performed:
(a) Completion of cumulative concentration-response curve: similar to experimental method on isolated right atrium;
(b) Calculation of pA2 value: similar to calculation method on isolated right atrium.

[7] = tested on: thoracic aorta; test: Isolated thoracic aorta contraction caused by 75 mM KCl; design: species or system Wistar rat; details: 10^−8M; 75 mM KCl contraction
Description: After sacrificing Wistar rat of weight between 300-500 gm, the thoracic aorta was immediately removed and placed in cold Kreb's solution. The fatty connecting tissue surrounding the vessel wall was removed and the thoracic aorta was cut into rings of length 5 mm. The two ends of each ring was pieced and fixed with “Z” shaped platinum wires. […] The sample was given 1 gm of tension and equilibrated for 60 minutes before the following experiments were carried out:
After thoracic aorta had reached equilibrium in the tissue trough, the normal Kreb's solution in the trough was replaced with 75 mM KCl solution to induce vasoconstriction. When the results had been recorded for at least 35 minutes, the aorta was repeatedly rinsed with normal Kreb's solution. After the aorta had re-equilibrated and at least rested for 60 minutes, different concentrations (10^−8, 10^−7, 10^−6, and 10^−5M) of compound 1 were separately added. 30 minutes later, 75 mM KCl was added again to induce vasoconstriction. This method was used to compare the differences in contraction induced by 75 mM KCl on thoracic aorta pre-treated and non-treated with compound 1.
0.1 μM of BayK8644 was first added into the tissue trough. 10 minutes later, 75 mM of concentrated Potassium solution was added to induce thoracic aorta contraction. When vasoconstriction had reached stability, different concentrations of (10^−8, 10^−7, 10^−6, and 10^−5M) compound 1 were separately added. The effects of aorta contraction induced by concentrated Potassium solution were observed.

[8] = biological target: T3, β2 (Cavia porcellus, UniProt Q8K4Z4); test: Guinea pig's isolated tracheal, L-isoproterenol relaxation of carbachol contraction (pA2); details: for β2 Tracheal (slope): slope of Schild regression; for β2 Value of pA2 Tracheal: vs L-isoproterenol, carbachol 10^−6 M contraction
T3 construct: a portion of tracheal approximately 4 cm long was removed; from tissue; host or cells: isolated trachea of reserpine-pretreated guinea pigs
Description: Guinea pigs of weight between 300˜500 gm were used. […] After the guinea pigs were sacrificed, a slit was made along the neck, and a portion of tracheal approximately 4 cm long was removed. […] The two ends of the tracheal were clamped with frog-heart shaped clamps, one end was fixed at the bottom of tissue bath filled with 20 ml of Kreb's solution, maintained at 37° C., while the other end was connected to a force transducer. Through a COULBOURN AT-High-Speed Videograph, long isometric contractions were recorded. After the sample was given 1.5 gm of tension and equilibrated, the following experiments were performed:
Then the tracheal was repeatedly washed with Kreb's solution for 20 minutes and 10−6 M of carbochol was added to cause contraction in the guinea pig's tracheal. […] This is the test group.
(b) Calculation of pA2: similar to the calculation method for isolated right atrium experiment.

T2 sequence (P18090 whole entry): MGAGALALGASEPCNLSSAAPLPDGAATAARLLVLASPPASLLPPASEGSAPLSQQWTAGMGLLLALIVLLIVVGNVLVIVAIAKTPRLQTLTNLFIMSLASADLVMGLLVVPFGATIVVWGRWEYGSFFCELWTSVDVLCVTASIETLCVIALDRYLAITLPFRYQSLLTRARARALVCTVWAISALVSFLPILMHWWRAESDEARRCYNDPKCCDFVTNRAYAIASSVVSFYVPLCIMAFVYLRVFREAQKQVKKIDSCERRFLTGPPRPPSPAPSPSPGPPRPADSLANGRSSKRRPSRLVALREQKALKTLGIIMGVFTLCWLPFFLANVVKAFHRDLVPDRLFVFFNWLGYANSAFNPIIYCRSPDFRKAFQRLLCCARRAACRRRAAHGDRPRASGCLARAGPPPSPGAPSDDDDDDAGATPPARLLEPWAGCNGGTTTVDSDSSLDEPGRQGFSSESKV
T3 sequence (Q8K4Z4 whole entry): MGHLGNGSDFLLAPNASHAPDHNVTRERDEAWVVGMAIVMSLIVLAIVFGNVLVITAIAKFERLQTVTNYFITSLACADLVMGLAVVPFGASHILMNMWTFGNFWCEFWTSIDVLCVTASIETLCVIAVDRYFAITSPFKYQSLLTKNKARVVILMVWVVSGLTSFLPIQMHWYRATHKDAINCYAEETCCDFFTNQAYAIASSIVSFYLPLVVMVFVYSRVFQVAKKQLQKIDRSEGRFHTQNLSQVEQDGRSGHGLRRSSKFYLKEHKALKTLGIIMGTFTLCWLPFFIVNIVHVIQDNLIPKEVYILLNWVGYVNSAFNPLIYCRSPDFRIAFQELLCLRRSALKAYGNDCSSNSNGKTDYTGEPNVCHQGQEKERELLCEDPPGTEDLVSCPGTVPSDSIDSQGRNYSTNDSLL
T1 sequence (Q8K4Z4 whole entry): as above

| SMILES | direct effect on right atrium beating rate and left atrium isometric contractions [1] | Lowering of Blood Pressure [4] | Reduction of Heart Rate [4] | Calcium Antagonism PKCa^−1 [5] | β1 Left Atrium (Slope) [6] | β1 Value of pA2 Left Atrium [6] | Ratio of β1 and Calcium Antagonism [3] | β1/β2 [3] | β1 Right Atrium (Slope) [3] | β1 Value of pA2 Right Atrium [3] | Aorta Relaxation [7] | β2 Tracheal (slope) [8] | β2 Value of pA2 Tracheal [8] | also measured |
| --- | --- | --- | --- | --- | --- | --- | --- | --- | --- | --- | --- | --- | --- | --- |
| CC(C)NCC(O)COc1cccc2ccccc12 (stereo not drawn) [Propranolol] | could retard the beating rate and isometric contractions | – | – | – | – | – | – | – | – | – | – | – | – | – |
| CC(C)NC[C@H](O)c1ccc(O)c(O)c1 [L-isoproterenol] | dose-dependently increase the right atrium beating rate and left atrium isometric contractions | – | – | – | – | – | – | – | – | – | – | – | – | – |
| COc1cc(C=O)ccc1OCC(O)CNC(C)(C)C (stereo not drawn) [Vanidilol, reference compound] | – | – | – | – | – | – | – | – | – | – | – | – | – | direct tracheal relaxation effect [2]: dose-dependant tracheal relaxation effect; effect on right atrium relative to tracheal (selectivity ratio of β1 type adrenoceptor) ([3]; from average pA2 difference between right atrium and tracheal): 0.98 ×; selectivity on the type of β-adrenoceptor ([3]; β1:β2): non-selective |
| CCOC(=O)C1=C(C)NC(C)=C(C(=O)OCC)C1c1ccc(OCC(O)CNCCOc2ccccc2OC)c(OC)c1 (stereo not drawn) [Compound 3, 4-{{N-{4-[2-hydroxy-3-(2-methoxy-1-oxyethyl-aminobenzene)propoxy]-3-methoxy)phenyl}}-2,6-dimethyl-3,5-dicarboethoxy-1,4-dihydropyridine] | – | 78 ± 5 mmHg | 37 ± 5 beats/min | 7.96 ± 0.27 | (0.89 ± 0.03) | 6.97 ± 0.12 | 0.08 | 1.26 | (0.92 ± 0.27) | 7.47 ± 0.38 | 41 ± 2% | (0.92 ± 0.23) | 7.31 ± 0.23 | – |
| COC(=O)C1=C(C)NC(C)=C(C(=O)OC)C1c1ccc(OCC(O)CNCCOc2ccccc2OC)c(OC)c1 (stereo not drawn) [Compound 2, 4-{{N-{4-[2-hydroxy-3-(2-methoxy-1-oxyethyl-aminobenzene)propoxy]-3-methoxy}phenyl}}-2,6-dimethyl-3,5-dicarbo-methoxy-1,4-dihydropyridine] | – | 75 ± 2 mmHg | 35 ± 4 beats/min | 7.91 ± 0.35 | (0.91 ± 0.21) | 6.93 ± 0.34 | 0.09 | 1.28 | (0.88 ± 0.09) | 7.36 ± 0.65 | 40 ± 4% | (0.88 ± 0.12) | 7.20 ± 0.45 | – |
| CC(C)NCC(O)COc1ccc(CC(N)=O)cc1 (stereo not drawn) [atenolol] | – | – | – | – | – | – | – | – | – | – | – | – | – | atrial blocking effect ([1]; 3×10−4M): almost does not have atrial blocking effect |
